Data from the supplement of paper PMC9663587.

Tests used:
Test in all cases: GRmax, 72 h; higher = less effect;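 note: breast cell lines in 384-well plates, nine doses across a 10^4 range, Dye Drop imaging of viable cells vs DMSO and time-zero plates, GR 0 means no net growth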
[1] = test system: 184A1
[2] = test system: BT549
[3] = test system: CAMA1
[4] = test system: HCC1419
[5] = test system: HTERT_HME1
[6] = test system: MCF10A
[7] = test system: MCF12A
[8] = test system: MDAMB175VII
[9] = test system: MDAMB330
[10] = test system: MGH312
[11] = test system: SUM1315
[12] = test system: SUM52PE
[13] = test system: T47D

Structure (SMILES)	GRmax, 72 h [1] [GR]	GRmax, 72 h [2] [GR]	GRmax, 72 h [3] [GR]	GRmax, 72 h [4] [GR]	GRmax, 72 h [5] [GR]	GRmax, 72 h [6] [GR]	GRmax, 72 h [7] [GR]	GRmax, 72 h [8] [GR]	GRmax, 72 h [9] [GR]	GRmax, 72 h [10] [GR]	GRmax, 72 h [11] [GR]	GRmax, 72 h [12] [GR]	GRmax, 72 h [13] [GR]	GRmax, 72 h ([2]; main component drawn) [GR]	GRmax, 72 h ([3]; main component drawn) [GR]	GRmax, 72 h ([4]; main component drawn) [GR]	GRmax, 72 h ([5]; main component drawn) [GR]	GRmax, 72 h ([6]; main component drawn) [GR]	GRmax, 72 h ([11]; main component drawn) [GR]	GRmax, 72 h ([13]; main component drawn) [GR]
COc1ccc2c(c1)[C@]1(C[C@H]1c1ccc3c(/C=C/c4ccc(CN5C[C@@H](C)O[C@@H](C)C5)cc4)n[nH]c3c1)C(=O)N2	0.0075	0.0324	-0.0117	0.32	-0.106	-0.0342	0.0038	0.046	0.284	-0.28	-0.232	0.121	-0.0071							
COc1cccc(OCCCN)c1-c1cc(Nc2cnc(C#N)cn2)n[nH]1	0.529	-0.422	0.084	0.248	-0.0816	0.351	-0.167	0.0945	-0.183	0.887	-0.419	-0.292	0.428							
CC(=O)Nc1cccc(-n2c(=O)n(C3CC3)c(=O)c3c(Nc4ccc(I)cc4F)n(C)c(=O)c(C)c32)c1 (max 1 µM)	0.187	0.598	0.553	0.426	0.203	0.225	-0.0287	-0.698	0.251	1.12	0.133	0.577	0.58							
CCc1cnn2c(NCc3ccc[n+]([O-])c3)cc(N3CCCC[C@H]3CCO)nc12 (max 1 µM)	-0.33	-0.292	-0.485	-0.476	-0.285	-0.23	-0.327	-0.493	-0.504	-0.951	-0.667	-0.33	-0.211							
CC(=O)c1c(C)c2cnc(Nc3ccc(N4CCNCC4)cn3)nc2n(C2CCCC2)c1=O (max 3.162 µM)	0.128	1.08	0.282	0.441	0.257	0.454	0.684	-0.0887	0.207	1.03	0.3	0.346	0.117							
CCc1cncnc1N1CCN(Cc2nc3ccc(C(F)(F)F)cc3[nH]2)CC1 (max 10 µM)	1.02	0.744	0.655	0.349	0.455	0.721	0.964	-0.426	0.621	0.311	0.595	0.446	0.366							
CCCCOc1c(C(=O)c2c(F)cc(C)cc2F)c[nH]c2nncc1-2 (max 10 µM)	-0.0413	-0.149	-0.0904	0.4	-0.0276	0.0637	0.338	-0.0619	0.129	0.0975	-0.296	0.299	0.0035							
CCN1CCN(Cc2ccc(Nc3ncc(F)c(-c4cc(F)c5nc(C)n(C(C)C)c5c4)n3)nc2)CC1 (max 10 µM)	-0.105	0.0333	0.222	0.228	0.0156	0.151	0.393	-0.192	-0.0152	-0.461	-0.144	0.332	-0.0412							
CNc1nc(-c2ccc3c(N)n[nH]c3c2)cc(N2C[C@@H](C(=O)NC3CCCCC3)CC[C@H]2C)n1 (max 10 µM)	0.572	0.666	0.716	0.442	0.641	0.918	0.8	-0.459	-0.738	-0.599	0.421	0.386	0.164							
CO[C@@H](C)Cn1c(=O)n(C)c2cnc3ccc(-c4cncc(C(C)(C)O)c4)cc3c21 (max 10 µM)	0.0943	-0.0177	-0.458	-0.769	0.0519	0.108	0.133	-0.938	-0.799	-0.795	-0.216	-0.125	-0.289							
Cc1nn(C)c(COc2ccc(N3CCN(S(=O)(=O)N(C)C)CC3)cc2)c1-c1cccc2c(CCCOc3cccc4ccccc34)c(C(=O)O)n(CCN3CCOCC3)c12 (max 10 µM)	-0.164	0.954	0.876	0.708	-0.422	0.953	0.993	0.705	0.881	0.775	0.74	0.373	0.575							
CN(C)CC[C@H](CSc1ccccc1)Nc1ccc(S(=O)(=O)NC(=O)c2ccc(N3CCN(Cc4ccccc4-c4ccc(Cl)cc4)CC3)cc2)cc1[N+](=O)[O-] [ABT-737] (max 10 µM)	-0.0149	0.936	0.864	0.471	0.495	0.817	0.979	-0.101	-0.104	0.0409	0.306	0.441	0.589							
C=CCn1c(=O)c2cnc(Nc3ccc(N4CCN(C)CC4)cc3)nc2n1-c1cccc(C(C)(C)O)n1 [AZD1775] (max 10 µM)	0.0471	-0.456	-0.206	-0.0276	-0.17	0.0997	-0.21	-0.203	-0.234	-0.873	-0.747	-0.226	0.162							
CNC(=O)c1cccc(-c2ccc3c(N4CCOC[C@@H]4C)nc(N4CCOC[C@@H]4C)nc3n2)c1 [AZD2014] (max 10 µM)	0.0847	0.089	-0.0933	-0.12	0.143	0.183	0.147	-0.756	-0.733	-0.693	0.0994	-0.0804	-0.0708							
NC1(C(=O)N[C@@H](CCO)c2ccc(Cl)cc2)CCN(c2nc[nH]c3nccc2-3)CC1 [AZD5363] (max 10 µM)	0.773	0.557	-0.124	0.536	0.564	0.805	0.617	-0.28	-0.643	-0.905	0.694	0.18	0.179							
C[C@@H]1COCCN1c1cc(C2([S@](C)(=N)=O)CC2)nc(-c2cc[nH]c3nccc2-3)n1 [AZD6738] (max 10 µM)	0.518	-0.099	0.25	0.367	0.287	0.442	-0.0672	0.149	0.12	0.348	-0.169	-0.174	0.745							

Structure (SMILES)	GRmax, 72 h [1] [GR]	GRmax, 72 h [2] [GR]	GRmax, 72 h [3] [GR]	GRmax, 72 h [4] [GR]	GRmax, 72 h [5] [GR]	GRmax, 72 h [6] [GR]	GRmax, 72 h [7] [GR]	GRmax, 72 h [8] [GR]	GRmax, 72 h [9] [GR]	GRmax, 72 h [10] [GR]	GRmax, 72 h [11] [GR]	GRmax, 72 h [12] [GR]	GRmax, 72 h [13] [GR]	GRmax, 72 h ([2]; main component drawn) [GR]	GRmax, 72 h ([3]; main component drawn) [GR]	GRmax, 72 h ([4]; main component drawn) [GR]	GRmax, 72 h ([5]; main component drawn) [GR]	GRmax, 72 h ([6]; main component drawn) [GR]	GRmax, 72 h ([11]; main component drawn) [GR]	GRmax, 72 h ([13]; main component drawn) [GR]
NC(=O)Nc1cc(-c2cccc(F)c2)sc1C(=O)N[C@H]1CCCNC1 [AZD7762] (max 10 µM)	-0.513	-0.482	-0.0865	-0.0826	-0.478	-0.18	-0.211	-0.811	-0.607	-0.515	-0.653	-0.322	-0.0573							
Cc1nc(NC(=O)N2CCC[C@H]2C(N)=O)sc1-c1ccnc(C(C)(C)C(F)(F)F)c1 [Alpelisib/BYL719] (max 10 µM)	0.431	0.684	0.979	-0.002	0.307	0.579	0.825	-0.697	-0.555	0.104	0.383	0.0427	-0.0332							
CN(C)C/C=C/C(=O)Nc1ccc(O[C@@H]2CCC[C@@H](Nc3ncc(Cl)c(-c4c[nH]c5ccccc45)n3)C2)cc1 [BSJ-01-175] (max 10 µM)	-0.452	-0.593	-0.712	-0.601	-0.28	-0.566	-0.292	-0.798	-0.971	-0.985	-0.864	-0.673	-0.719							
CC(=O)c1c(C)c2cnc(Nc3ccc(N4CCN(CCOCCOCCOCCNC(=O)COc5cccc6c5C(=O)N(C5CCC(=O)NC5=O)C6=O)CC4)cn3)nc2n(C2CCCC2)c1=O (centres undefined) [BSJ-03-123] (max 10 µM)	-0.137	0.0183	0.0546	0.165	-0.153	-0.113	0.129	0.0607	-0.0919	-0.894	0.236	0.227	0.0948							
CC(C)Nc1cc(-c2c[nH]c(C(=O)N[C@H](CO)c3cccc(Cl)c3)c2)c(Cl)cn1 [BVD523] (max 10 µM)	0.046	0.545	0.156	0.637	0.001	0.185	0.104	-0.31	0.356	0.914	0.207	0.315	0.217							
Cc1c(N)nc([C@H](CC(N)=O)NC[C@H](N)C(N)=O)nc1C(=O)N[C@H](C(=O)N[C@H](C)[C@@H](O)[C@H](C)C(=O)N[C@H](C(=O)NCCc1nc(-c2nc(C(=O)NCCC[S+](C)C)cs2)cs1)[C@@H](C)O)[C@@H](OC1OC(CO)C(O)C(O)C1OC1OC(CO)C(O)C(OC(N)=O)C1O)c1cnc[nH]1 (some centres undefined) [Bleomycin] (max 10 µM)														-0.0141	-0.0365	0.354	-0.111	0.0378	0.149	-0.084
Nc1cc(C(F)(F)F)c(-c2cc(N3CCOCC3)nc(N3CCOCC3)n2)cn1 [Buparlisib/NVP-BKM120] (max 10 µM)	-0.0111	-0.272	-0.422	-0.496	-0.241	-0.16	-0.113	-0.976	-0.858	-0.859	-0.369	-0.183	-0.418							
COc1cc2nccc(Oc3ccc(NC(=O)C4(C(=O)Nc5ccc(F)cc5)CC4)cc3)c2cc1OC [Cabozantinib] (max 10 µM)	0.121	0.533	0.244	0.622	-0.105	0.843	0.96	0.0863	0.743	0.332	0.11	0.0751	0.313							
COc1cc2c(Oc3ccc4[nH]c(C)cc4c3F)ncnc2cc1OCCCN1CCCC1 [Cediranib/AZD2171] (max 10 µM)	0.167	-0.135	-0.292	-0.0329	0.0275	0.478	0.937	-0.648	-0.529	-0.0842	-0.228	0.21	-0.64							
Cc1cc(Nc2ncc(Cl)c(Nc3ccccc3S(=O)(=O)C(C)C)n2)c(OC(C)C)cc1C1CCNCC1 [Ceritinib/LDK378] (max 10 µM)	-0.728	-0.228	-0.699	-0.867	-0.356	-0.319	0.172	0.261	0.152	-0.156	-0.765	0.559	-0.855							
N.N.[Cl][Pt][Cl] [Cisplatin] (max 10 µM)		0.0674	-0.0042	0.0949	-0.218	0.379					0.203		0.102							
Cc1nc(Nc2ncc(C(=O)Nc3c(C)cccc3Cl)s2)cc(N2CCN(CCO)CC2)n1 [Dasatinib] (max 10 µM)	0.192	0.37	0.679	-0.196	-0.0749	-0.0146	-0.0434	-0.714	0.556	0.0774	-0.237	-0.322	0.496							
COc1cccc2c1C(=O)c1c(O)c3c(c(O)c1C2=O)C[C@@](O)(C(=O)CO)C[C@@H]3O[C@H]1C[C@H](N)[C@H](O)[C@H](C)O1 [Doxorubicin] (max 3.162 µM)	0.028	-0.331	-0.652	-0.466	-0.399	-0.324	-0.138	-0.595	-0.205	-0.963	-0.0635	-0.0432	-0.361							
COc1cc([C@@H]2c3cc4c(cc3[C@@H](O[C@@H]3O[C@@H]5CO[C@@H](C)O[C@H]5[C@H](O)[C@H]3O)[C@H]3COC(=O)[C@H]23)OCO4)cc(OC)c1O [Etoposide] (max 10 µM)		-0.195	-0.448	0.0317	-0.384	-0.0699					0.0416		-0.186							
CC[C@@]1(O)C(=O)OCc2c1cc1n(c2=O)Cc2cc3c(CN(C)C)c(O)ccc3nc2-1 [Topotecan] (max 10 µM)		-0.241	-0.423	-0.786	-0.34	-0.2					-0.332		-0.197							
